The values that follow come from patent US20260285875A1, “INHIBITORS OF PARG” (858 Therapeutics, Inc., priority 2023, published 2026).

This experiment has as its target T1, cellular PARG (Homo sapiens, UniProt Q86W56).
T1 construct: endogenous in cells; host or cells: HeLa
The experiment can be described thus: Nuclear PAR accumulation assay (immunofluorescence high-content imaging, MMS-treated HeLa cells). The following applies: 1 hour compound then MMS 50 μg/mL for an additional hour. It counts as cell-based. The procedure, abridged:
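HeLa cells pretreated with compound for 1 h at 37° C, then given 50 μg/mL MMS for another hour. After methanol fixation, PAR was immunostained with DAPI nuclear counterstain; per-nucleus intensity and percent PAR-positive cells were imaged at 20× (≥1,000 cells/well). IC50 from four-parameter logistic fit.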

Where only a bound is given, the exact number is not on record here.

T1 sequence (Q86W56 whole entry): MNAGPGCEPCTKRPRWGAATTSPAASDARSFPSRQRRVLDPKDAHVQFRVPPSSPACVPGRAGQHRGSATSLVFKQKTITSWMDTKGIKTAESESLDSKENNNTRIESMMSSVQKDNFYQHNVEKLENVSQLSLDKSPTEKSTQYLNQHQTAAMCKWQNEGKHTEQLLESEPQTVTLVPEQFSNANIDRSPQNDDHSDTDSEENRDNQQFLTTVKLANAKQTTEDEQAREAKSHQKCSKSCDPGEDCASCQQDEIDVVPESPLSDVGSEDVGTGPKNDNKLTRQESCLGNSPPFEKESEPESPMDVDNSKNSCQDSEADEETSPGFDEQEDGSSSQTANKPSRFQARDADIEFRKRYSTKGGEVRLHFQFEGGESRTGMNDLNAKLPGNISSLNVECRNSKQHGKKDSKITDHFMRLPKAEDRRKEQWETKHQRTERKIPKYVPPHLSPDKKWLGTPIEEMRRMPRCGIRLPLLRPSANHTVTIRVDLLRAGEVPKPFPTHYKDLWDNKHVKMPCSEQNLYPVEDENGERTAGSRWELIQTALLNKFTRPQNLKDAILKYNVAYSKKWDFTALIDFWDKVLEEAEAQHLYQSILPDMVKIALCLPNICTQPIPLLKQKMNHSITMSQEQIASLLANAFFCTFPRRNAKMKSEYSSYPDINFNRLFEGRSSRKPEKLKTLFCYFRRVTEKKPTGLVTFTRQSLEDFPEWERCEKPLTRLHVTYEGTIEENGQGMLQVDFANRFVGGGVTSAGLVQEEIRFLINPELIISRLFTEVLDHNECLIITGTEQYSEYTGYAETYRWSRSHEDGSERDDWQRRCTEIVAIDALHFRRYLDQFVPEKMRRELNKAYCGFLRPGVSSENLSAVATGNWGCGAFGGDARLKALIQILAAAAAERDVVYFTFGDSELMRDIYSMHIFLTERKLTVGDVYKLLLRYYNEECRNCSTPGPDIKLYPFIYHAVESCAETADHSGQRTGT

Take `Cn1cc(CN2C(=O)c3cc(S(=O)(=O)NC4(C)CC4)ccc3N3C2=NCC3COc2ccccc2F)cn1` (stereo not shown) [Example 151, 1-((2-fluorophenoxy)methyl)-4-((1-methyl-1H-pyrazol-4-yl)methyl)-N-(1-methylcyclopropyl)-5-oxo-1,2,4,5-tetrahydroimidazo[1,2-a]quinazoline-7-sulfonamide]: the IC50 (in general, the concentration that gives 50% inhibition) is under 100 nM.

Consider `CN(C)C1(C#C[C@@H]2CN=C3N(CC4(F)CC4)C(=O)c4cc(S(=O)(=O)NC5(C)CC5)ccc4N32)CC1` [Example 152, (R)-1-((1-(dimethylamino)cyclopropyl)ethynyl)-4-((1-fluorocyclopropyl)methyl)-N-(1-methylcyclopropyl)-5-oxo-1,2,4,5-tetrahydroimidazo[1,2-a]quinazoline-7-sulfonamide], for which the IC50 is under 100 nM.

Compound `C#C[C@@H]1CN=C2N(Cc3cnc(C)o3)C(=O)c3cc(S(=O)(=O)NC4(C)CC4)ccc3N21` [Example 153, (R)-1-ethynyl-N-(1-methylcyclopropyl)-4-((2-methyloxazol-5-yl)methyl)-5-oxo-1,2,4,5-tetrahydroimidazo[1,2-a]quinazoline-7-sulfonamide] returned an IC50 of under 100 nM.

In the case of `Cn1cc(CN2C(=O)c3cc(S(=O)(=O)NC4(C)CC4)ccc3N3C[C@H](COCc4ccccc4)N=C23)cn1` [Example 154, (R)-2-((benzyloxy)methyl)-4-((1-methyl-1H-pyrazol-4-yl)methyl)-N-(1-methylcyclopropyl)-5-oxo-1,2,4,5-tetrahydroimidazo[1,2-a]quinazoline-7-sulfonamide], the IC50 was under 100 nM.

`Cn1cc(CN2C(=O)c3cc(S(=O)(=O)NC4(C)CC4)ccc3N3C[C@H](c4ccccc4)N=C23)cn1` [Example 155, (S)-4-((1-methyl-1H-pyrazol-4-yl)methyl)-N-(1-methylcyclopropyl)-5-oxo-2-phenyl-1,2,4,5-tetrahydroimidazo[1,2-a]quinazoline-7-sulfonamide] returned an IC50 of under 100 nM.

For `C#C[C@H]1CN2C(=N1)N(Cc1cnn(C)c1)C(=O)c1cc(S(=O)(=O)NC3(C)CC3)ccc12` [Example 156, (S)-2-ethynyl-4-((1-methyl-1H-pyrazol-4-yl)methyl)-N-(1-methylcyclopropyl)-5-oxo-1,2,4,5-tetrahydroimidazo[1,2-a]quinazoline-7-sulfonamide], the IC50 fell in the range of 100 to 1000 nM.

In the case of `Cn1cc(CN2C(=O)c3cc(S(=O)(=O)NC4(C)CC4)ccc3N3C2=N[C@H]2CCOC[C@H]23)cn1` [Example 157, (7aS,1laS)-6-((1-methyl-1H-pyrazol-4-yl)methyl)-N-(1-methylcyclopropyl)-5-oxo-6,7a,8,9,11,11a-hexahydro-5H-pyrano[4′,3′:4,5]imidazo[1,2-a]quinazoline-3-sulfonamide], the IC50 was under 100 nM.

`Cn1cc(CN2C(=O)c3cc(S(=O)(=O)NC4(C)CC4)ccc3N3C2=N[C@H]2COCC[C@H]23)cn1` [Example 158, (7aR,11aR)-6-((1-methyl-1H-pyrazol-4-yl)methyl)-N-(1-methylcyclopropyl)-5-oxo-5,6,7a,10,11,11a-hexahydro-8H-pyrano[3′,4′:4,5]imidazo[1,2-a]quinazoline-3-sulfonamide]: the IC50 lay in the range of 100 to 1000 nM.

As to `Cn1cc(CN2C(=O)c3cc(S(=O)(=O)NC4(C)CC4)ccc3N3C2=N[C@H]2CNCC[C@H]23)cn1` [Example 159, (7aS,11aR)-6-((1-methyl-1H-pyrazol-4-yl)methyl)-N-(1-methylcyclopropyl)-5-oxo-5,6,7a,8,9,10,11,11a-octahydropyrido[3′,4′:4,5]imidazo[1,2-a]quinazoline-3-sulfonamide], the IC50 fell in the range of 1000 to 10000 nM.

As to `Cn1cc(CN2C(=O)c3cc(S(=O)(=O)NC4(C)CC4)ccc3N3C2=N[C@H]2CCNC[C@H]23)cn1` [Example 160, (7aS,11aR)-6-((1-methyl-1H-pyrazol-4-yl)methyl)-N-(1-methylcyclopropyl)-5-oxo-5,6,7a,8,9,10,11,11a-octahydropyrido[4′,3′:4,5]imidazo[1,2-a]quinazoline-3-sulfonamide], the IC50 lay within 100 to 1000 nM.

Turning to `CN(C)C(=O)N1CC[C@@H]2N=C3N(Cc4cnn(C)c4)C(=O)c4cc(S(=O)(=O)NC5(C)CC5)ccc4N3[C@@H]2C1` [Example 161, (7aS,11aR)-N,N-dimethyl-6-((1-methyl-1H-pyrazol-4-yl)methyl)-3-(N-(1-methylcyclopropyl)sulfamoyl)-5-oxo-6,7a,8,9,11,1la-hexahydropyrido[4′,3′:4,5]imidazo[1,2-a]quinazoline-10(5H)-carboxamide], the IC50 lay within 1000 to 10000 nM.

Take `C#CCn1cc(CN2C(=O)c3cc(S(=O)(=O)NC4(C)CC4)ccc3N3C2=NC[C@H]3C)cn1` [Example 162, (R)-1-methyl-N-(1-methylcyclopropyl)-5-oxo-4-((1-(prop-2-yn-1-yl)-1H-pyrazol-4-yl)methyl)-1,2,4,5-tetrahydroimidazo[1,2-a]quinazoline-7-sulfonamide]: the half-maximal inhibitory concentration (IC50) is under 100 nM.

Take `[2H]C([2H])(c1cnn(C)c1)N1C(=O)c2cc(S(=O)(=O)NC3(C)CC3)ccc2N2C1=NC[C@H]2C#Cc1cnn(C)n1` [Example 163, (R)-4-((1-methyl-1H-pyrazol-4-yl)methyl-d2)-1-((2-methyl-2H-1,2,3-triazol-4-yl)ethynyl)-N-(1-methylcyclopropyl)-5-oxo-1,2,4,5-tetrahydroimidazo[1,2-a]quinazoline-7-sulfonamide]: the IC50 is under 100 nM.

The compound `CSCC#C[C@@H]1CN=C2N(Cc3cnn(C)c3)C(=O)c3cc(S(=O)(=O)NC4(C)CC4)ccc3N21` [Example 164, (R)-4-((1-methyl-1H-pyrazol-4-yl)methyl)-N-(1-methylcyclopropyl)-1-(3-(methylthio)prop-1-yn-1-yl)-5-oxo-1,2,4,5-tetrahydroimidazo[1,2-a]quinazoline-7-sulfonamide] gave an IC50 of under 100 nM.

For the compound `Cn1cc(CN2C(=O)c3cc(S(=O)(=O)NC4(C)CC4)ccc3N3C2=NC[C@H]3C#Cc2ccnn2C)cn1` [Example 165, (R)-4-((1-methyl-1H-pyrazol-4-yl)methyl)-1-((1-methyl-1H-pyrazol-5-yl)ethynyl)-N-(1-methylcyclopropyl)-5-oxo-1,2,4,5-tetrahydroimidazo[1,2-a]quinazoline-7-sulfonamide], the IC50 was under 100 nM.

With `Cn1cc(CN2C(=O)c3cc(S(=O)(=O)NC4(C)CC4)ccc3N3C2=NC[C@H]3C#Cc2cnnn2C)cn1` [Example 166, (R)-1-((1-methyl-1H-1,2,3-triazol-5-yl)ethynyl)-4-((1-methyl-1H-pyrazol-4-yl)methyl)-N-(1-methylcyclopropyl)-5-oxo-1,2,4,5-tetrahydroimidazo[1,2-a]quinazoline-7-sulfonamide], the IC50 was under 100 nM.

Compound `CN1C(=O)c2cc(S(=O)(=O)NC3(C)CC3)ccc2N2C1=NCC2C#Cc1cnc2ccccn12` (stereo not shown) [Example 167, 1-(imidazo[1,2-a]pyridin-3-ylethynyl)-4-methyl-N-(1-methylcyclopropyl)-5-oxo-1,2,4,5-tetrahydroimidazo[1,2-a]quinazoline-7-sulfonamide] returned an IC50 of under 100 nM.

On to `CN1C(=O)c2cc(S(=O)(=O)NC3(C)CC3)ccc2N2C1=NCC2C#Cc1c[nH]c2cnccc12` (stereo not shown) [Example 168, 1-((1H-pyrrolo[2,3-c]pyridin-3-yl)ethynyl)-4-methyl-N-(1-methylcyclopropyl)-5-oxo-1,2,4,5-tetrahydroimidazo[1,2-a]quinazoline-7-sulfonamide], for which the half-maximal inhibitory concentration (IC50) was 100 to 1000 nM.

The compound `CN1C(=O)c2cc(S(=O)(=O)NC3(C)CC3)ccc2N2C1=NCC2C#Cc1cc2cccnc2[nH]1` (stereo not shown) [Example 169, 1-((1H-pyrrolo[2,3-b]pyridin-2-yl)ethynyl)-4-methyl-N-(1-methylcyclopropyl)-5-oxo-1,2,4,5-tetrahydroimidazo[1,2-a]quinazoline-7-sulfonamide] showed an IC50 of 100 to 1000 nM.

As to `CN1C(=O)c2cc(S(=O)(=O)NC3(C)CC3)ccc2N2C1=NCC2C#Cc1ccnc2c1OCCO2` (stereo not shown) [Example 170, 1-((2,3-dihydro-[1,4]dioxino[2,3-b]pyridin-8-yl)ethynyl)-4-methyl-N-(1-methylcyclopropyl)-5-oxo-1,2,4,5-tetrahydroimidazo[1,2-a]quinazoline-7-sulfonamide], the IC50 is under 100 nM.

Consider `CN1C(=O)c2cc(S(=O)(=O)NC3(C)CC3)ccc2N2C1=NC[C@H]2C#Cc1cnc2ncccn12` [Example 171, (R)-1-(imidazo[1,2-a]pyrimidin-3-ylethynyl)-4-methyl-N-(1-methylcyclopropyl)-5-oxo-1,2,4,5-tetrahydroimidazo[1,2-a]quinazoline-7-sulfonamide], for which the IC50 lay within 100 to 1000 nM.

In turn, `CN1C(=O)c2cc(S(=O)(=O)NC3(C)CC3)ccc2N2C1=NCC2C#Cc1ccc2nnn(C)c2c1` (stereo not shown) [Example 172, 4-methyl-1-((1-methyl-1H-benzo[d][1,2,3]triazol-6-yl)ethynyl)-N-(1-methylcyclopropyl)-5-oxo-1,2,4,5-tetrahydroimidazo[1,2-a]quinazoline-7-sulfonamide] yielded a half-maximal inhibitory concentration (IC50) of under 100 nM.

Consider `C#C[C@@H]1[C@H](C)N=C2N(Cc3cnn(C)c3)C(=O)c3cc(S(=O)(=O)NC4(C)CC4)ccc3N21` [Example 173, (1R,2S)-1-ethynyl-2-methyl-4-((1-methyl-1H-pyrazol-4-yl)methyl)-N-(1-methylcyclopropyl)-5-oxo-1,2,4,5-tetrahydroimidazo[1,2-a]quinazoline-7-sulfonamide], for which the IC50 is under 100 nM.

`CN1C(=O)c2cc(S(=O)(=O)NC3(C)CC3)ccc2N2C1=NC[C@H]2C#Cc1c2ccccc2nn1C` [Example 174, (R)-4-methyl-1-((2-methyl-2H-indazol-3-yl)ethynyl)-N-(1-methylcyclopropyl)-5-oxo-1,2,4,5-tetrahydroimidazo[1,2-a]quinazoline-7-sulfonamide]: the IC50 was under 100 nM.

The compound `CN1C(=O)c2cc(S(=O)(=O)NC3(C)CC3)ccc2N2C1=NCC2C#Cc1cnn(C)c(=O)c1` (stereo not shown) [Example 175, 4-methyl-1-((1-methyl-6-oxo-1,6-dihydropyridazin-4-yl)ethynyl)-N-(1-methylcyclopropyl)-5-oxo-1,2,4,5-tetrahydroimidazo[1,2-a]quinazoline-7-sulfonamide] gave an IC50 of under 100 nM.
